# Assay results as given in PubChem BioAssay (NCI).
#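 Interpolation was linear, between the two tested concentrations surrounding the appropriate level; five concentrations were tested over 48 hours in 96-well plates. At the TGI there is no net growth.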
# Experiments:
# Experiment in all cases: inhibition of tumour cell growth, NCI panel, 48 h
# KM12 colon = tested on: KM12 colon
# MALME-3M melanoma = tested on: MALME-3M melanoma
# OVCAR-4 ovarian = tested on: OVCAR-4 ovarian
# T-47D breast = tested on: T-47D breast
# RXF 393 renal = tested on: RXF 393 renal
# DU-145 prostate = tested on: DU-145 prostate
# A549 NSCLC = tested on: A549 NSCLC
# K-562 leukemia = tested on: K-562 leukemia
# BT-549 breast = tested on: BT-549 breast
# ACHN renal = tested on: ACHN renal
# MDA-N = tested on: MDA-N
# NCI-H522 lung = tested on: NCI-H522 lung
# SNB-75 CNS = tested on: SNB-75 CNS
# IGROV1 ovarian = tested on: IGROV1 ovarian
# OVCAR-8 ovarian = tested on: OVCAR-8 ovarian
# U251 CNS = tested on: U251 CNS
# LOX IMVI melanoma = tested on: LOX IMVI melanoma
# SF-295 CNS = tested on: SF-295 CNS
# NCI-H23 lung = tested on: NCI-H23 lung
# HCC-2998 colon = tested on: HCC-2998 colon
SMILES,TGI (KM12 colon) [µM],TGI (MALME-3M melanoma) [µM],TGI (OVCAR-4 ovarian) [µM],TGI (T-47D breast) [µM],TGI (RXF 393 renal) [µM],TGI (DU-145 prostate) [µM],TGI (A549 NSCLC) [µM],TGI (K-562 leukemia) [µM],TGI (BT-549 breast) [µM],TGI (ACHN renal) [µM],TGI (MDA-N) [µM],TGI (NCI-H522 lung) [µM],TGI (SNB-75 CNS) [µM],TGI (IGROV1 ovarian) [µM],TGI (OVCAR-8 ovarian) [µM],TGI (U251 CNS) [µM],TGI (LOX IMVI melanoma) [µM],TGI (SF-295 CNS) [µM],TGI (NCI-H23 lung) [µM],TGI (HCC-2998 colon) [µM]
O=C(CCCn1ccnc1[N+](=O)[O-])NCCn1cnc([N+](=O)[O-])n1,> 100,> 100,> 100,> 100,> 100,> 100,> 100,> 100,> 100,> 100,> 100,> 100,> 100,> 100,> 100,> 100,> 100,> 100,> 100,
CCOc1cc2c(cc1O)C(=O)C[C@@H]1[C@@H]2CC[C@]2(C)[C@@H](O)CC[C@@H]12,29.6,> 9.3,> 100,> 100,> 100,> 51.9,> 100,2.27,28.9,> 100,0.106,3.2,,> 30.3,27.1,> 51.9,> 100,9.52,43.7,4.56
CC(C)C(/C=C/c1ccc(Cl)cc1)=N\NC(=O)N/N=C(/C=C/c1ccc(Cl)cc1)C(C)C,> 100,> 100,36,> 100,76.9,> 100,41.5,> 100,97.9,87.3,> 100,,39,94.7,38,30.6,,45.2,55.9,> 100
COC(=O)C1Cc2cc3c(cc2C1)CCC3,> 100,> 100,> 100,> 100,> 100,> 100,> 100,> 100,> 100,> 100,> 100,,> 100,> 100,> 100,> 100,> 100,> 100,> 100,> 100
CN(/N=C/C=N/N(C)C1=NCCN1)C1=NCCN1,> 100,> 100,> 100,> 100,,> 100,> 100,> 100,> 100,> 100,> 100,> 100,> 100,> 100,> 100,> 100,> 100,> 100,> 100,> 100
CC1CC(=O)Nc2ccccc2N1C(=O)C1CC1 (stereo not drawn),> 100,> 100,> 100,> 100,> 100,> 100,> 100,> 100,> 100,> 100,> 100,> 100,,> 100,> 100,> 100,> 100,> 100,> 100,> 100
Cc1cccc(-c2nc(-c3cnccn3)n(Cc3ccccc3)n2)c1,> 100,,> 100,> 100,94.1,> 100,> 100,> 100,> 100,,> 100,> 100,30.2,> 100,> 100,> 100,> 100,> 100,> 100,> 100
COc1ccc(C=O)cc1OS(=O)(=O)C(F)(F)C(F)(F)C(F)(F)C(F)(F)F,> 74.4,> 69,> 100,> 100,59.8,> 100,> 100,,> 100,> 100,44.7,> 60.1,> 90.4,> 67.5,> 100,66.5,41.9,53,> 100,
Cc1cc(=O)oc2c(C)c3oc(CBr)cc3cc12,42.1,40.3,65.1,60.8,,> 100,33.3,46.7,33.5,29.8,40.9,30.1,47.4,33.3,66.7,47.1,31.1,34.3,40,31.9
CCOC(=O)c1cc([N+](=O)[O-])c(Sc2ncnc3nc[nH]c23)c([N+](=O)[O-])c1,24.5,18.1,,30,23.3,29.2,55.6,,20.1,19.9,15.1,2.34,,13.7,17.9,22.8,17.9,> 35.6,28.7,36.7
CCCCCCc1cc2cc(C(=O)Nc3cccc(F)c3)c(=N)oc2cc1O,8.3,8.75,12.3,7.35,,12.2,13.4,10.5,6.19,> 100,11.8,5.33,,4,3.56,6.58,3.41,15.9,5.06,11.6
C/C(=N\O)c1cccc(Nc2c3ccccc3nc3occc23)c1,> 100,9.7,9.59,21.7,,59.2,58.5,> 100,24.1,38.6,> 100,4.83,,13.2,83,> 100,> 100,26.7,49.4,52.4
COc1ccc(CNc2nc3cc(C(F)(F)F)ccc3nc2C(=O)O)cc1,63.6,,> 100,> 100,,> 100,95.9,61.3,69.6,> 100,74.6,,> 100,> 100,> 100,> 100,44.3,> 100,76.3,71.3
